Assay results: patent publication US12180248B2, “Compositions and methods for treating CNS disorders” (Sage Therapeutics, Inc., priority 2014, dated 2024)

biological target: rat brain cortical membranes ([35S]-TBPS binding; GABAA receptor); test: Steroid inhibition of [35S]-TBPS binding (radioligand displacement); settings: 3 nM [35S]-TBPS, in the presence of 5 μM GABA, 90 min at room temp
From the text: TBPS binding assays using rat brain cortical membranes in the presence of […] GABA has been described (Gee et al, J. Pharmacol. Exp. Ther. 1987, 241, 346-353; Hawkinson et al, Mol. Pharmacol. 1994, 46, 977-985; Lewin, A. H et al., Mol. Pharmacol. 1989, 35, 189-194).
Briefly, cortices are rapidly removed following decapitation of carbon dioxide-anesthetized Sprague-Dawley rats (200-250 g). The cortices are homogenized in 10 volumes of ice-cold 0.32 M sucrose using a glass/teflon homogenizer and centrifuged at 1500×g for 10 min at 4° C. The resultant supernatants are centrifuged at 10,000×g for 20 min at 4° C.; to obtain the P2 pellets. The P2 pellets are resuspended in 200 mM NaCl/50 mM Na—K phosphate pH 7.4 buffer and centrifuged at 10,000×g for 10 min at 4° C. This washing procedure is repeated twice and the pellets are resuspended in 10 volumes of buffer. Aliquots (100 μL) of the membrane suspensions are incubated with 3 nM [^35S]-TBPS and 5 μL aliquots of test drug dissolved in dimethyl sulfoxide (DMSO) (final 0.5%) in the presence of 5 μM GABA. The incubation is brought to a final volume of 1.0 mL with buffer. Nonspecific binding is determined in the presence of 2 μM unlabeled TBPS and ranged from 15 to 25%. Following a 90 min incubation at room temp, the assays are terminated by filtration through glass fiber filters (Schleicher and Schuell No. 32) using a cell harvester (Brandel) and rinsed three times with ice-cold buffer. Filter bound radioactivity is measured by liquid scintillation spectrometry. Non-linear curve fitting of the overall data for each drug averaged for each concentration is done using Prism (GraphPad). […] The concentration of test compound producing 50% inhibition (IC50) of specific binding and the maximal extent of inhibition (Imax) are determined for the individual experiments with the same model used for the overall data and then the means±SEM.s of the individual experiments are calculated.
Various compounds are or can be screened to determine their potential as modulators of [^35S]-TBPS binding in vitro. These assays are or can be performed in accordance with the above discussed procedures.

Compound	IC50
C[C@H](C(=O)[C@H]1CC[C@H]2[C@@H]3CC[C@@H]4C[C@](C)(O)CC[C@@H]4[C@H]3CC[C@]12C)n1nccn1 [Compound 1, (R)-1-((3R,5R,8R,9R,10S,13S,14S,17S)-3-hydroxy-3,13-dimethylhexadecahydro-1H-cyclopenta[a]phenanthren-17-yl)-2-(2H-1,2,3-triazol-2-yl)propan-1-one]	250 to 500 nM
C[C@@H](C(=O)[C@H]1CC[C@H]2[C@@H]3CC[C@@H]4C[C@](C)(O)CC[C@@H]4[C@H]3CC[C@]12C)n1nccn1 [Compound 2, (S)-1-((3R,5R,8R,9R,10S,13S,14S,17S)-3-hydroxy-3,13-dimethylhexadecahydro-: 1H-cyclopenta[a]phenanthren-17-yl)-2-(2H-1,2,3-triazol-2-yl)propan-1-one]	50 to 100 nM
C[C@@H](C(=O)[C@H]1CC[C@H]2[C@@H]3CC[C@@H]4C[C@](C)(O)CC[C@@H]4[C@H]3CC[C@]12C)n1cc(C#N)cn1 [Compound 3, 1-((S)-1-((3R,5R,8R,9R,10S,13S,14S,17S)-3-hydroxy-3,13-dimethylhexadecahydro-1H-cyclopenta[a]phenanthren-17-yl)-1-oxopropan-2-yl)-1H-pyrazole-4-carbonitrile]	< 50 nM
C[C@H](C(=O)[C@H]1CC[C@H]2[C@@H]3CC[C@@H]4C[C@](C)(O)CC[C@@H]4[C@H]3CC[C@]12C)n1cc(C#N)cn1 [Compound 4, 1-((R)-1-((3R,5R,8R,9R,10S,13S,14S,17S)-3-hydroxy-3,13-dimethylhexadecahydro-1H-cyclopenta[a]phenanthren-17-yl)-1-oxopropan-2-yl)-1H-pyrazole-4-carbonitrile]	50 to 100 nM
CC(C(=O)[C@H]1CC[C@H]2[C@@H]3CC[C@@H]4C[C@](C)(O)CC[C@@H]4[C@H]3CC[C@]12C)N1CCOCC1 (stereo partly drawn) [Compound 5, 1-((3R,5R,8R,9R,10S,13S,14S,17S)-3-hydroxy-3,13-dimethylhexadecahydro-1H-cyclopenta[a]phenanthren-17-yl)-2-morpholinopropan-1-one]	250 to 500 nM
C[C@@H](C(=O)[C@H]1CC[C@H]2[C@@H]3CC[C@@H]4C[C@](C)(O)CC[C@@H]4[C@H]3CC[C@]12C)n1nc2ccccc2n1 [Compound 6, (S)-2-(2H-benzo[d][1,2,3]triazol-2-yl)-1-((3R,5R,8R,9R,10S,13S,14S,17S)-3-hydroxy-3,1:3-dimethylhexadecahydro-1H-cyclopenta[a]phenanthren-17-yl)propan-1-one]	< 50 nM
C[C@H](C(=O)[C@H]1CC[C@H]2[C@@H]3CC[C@@H]4C[C@](C)(O)CC[C@@H]4[C@H]3CC[C@]12C)n1nc2ccccc2n1 [Compound 7, (R)-2-(2H-benzo[d][1,2,3]triazol-2-yl)-1-((3R,5R,8R,9R,10S,13S,14S,17S)-3-hydroxy-3,13-dimethylhexadecahydro-1H-cyclopenta[a]phenanthren-17-yl)propan-1-one]	250 to 500 nM
